For one test, the target named is human orexin-2 receptor (Homo sapiens (Human), UniProt O43614). Briefly: FLIPR Ca2+ Flux Assay, CHO cells expressing human orexin-2 receptor. It is filed as cell-based. Conditions: agonist 70 pM Ala-6,12 human orexin-A, read-out: hOX2R FLIPR IC50. The method, then: (§1) The utility of the compounds in accordance with the present invention as orexin receptor OX1R and/or OX2R antagonists may be readily determined without undue experimentation by methodology well known in the art, including the “FLIPR Ca^2+ Flux Assay” (Okumura et al., Biochem. Biophys. Res. Comm. 280:976-981, 2001). In a typical experiment the OX1 and OX2 receptor antagonistic activity of the compounds of the present invention was determined in accordance with the following experimental method. For intracellular calcium measurements, Chinese hamster ovary (CHO) cells expressing the rat orexin-1 receptor or the human orexin-2 receptor, are grown in Iscove's modified DMEM containing 2 mM L-glutamine, […], 1% hypoxanthine-thymidine supplement, 100 U/ml penicillin, 100 μg/ml streptomycin and 10% heat-inactivated fetal calf serum (FCS). The cells are seeded at 20,000 cells/well into Becton-Dickinson black 384-well clear bottom sterile plates coated with poly-D-lysine. All reagents were from GIBCO-Invitrogen Corp. The seeded plates are incubated overnight at […]. and 5% CO2. Ala-6,12 human orexin-A as the agonist is prepared as a 1 mM stock solution in 1% bovine serum albumin (BSA) and diluted in assay buffer (HBSS containing 20 mM HEPES, 0.1% BSA and 2.5 mM probenecid, pH7.4) for use in the assay at a final concentration of 70 pM. Test compounds are prepared as 10 mM stock solution in DMSO, then diluted in 384-well plates, first in DMSO, then assay buffer. On the day of the assay, cells are washed 3 times with 100 μl assay buffer and then incubated for 60 min (37° C., 5% CO2) in 60 μl assay buffer containing 1 μM Fluo-4AM ester, 0.02% pluronic acid, and 1% BSA. The dye loading solution is then aspirated and cells are washed 3 times with 100 μl assay buffer. 30 μl of that same buffer is left in each well. Within the Fluorescent Imaging Plate Reader (FLIPR, Molecular Devices), test compounds are added to the plate in a volume of 25 μl, incubated for 5 min and finally 25 μl of agonist is added. Fluorescence is measured for each well at 1 second intervals for 5 minutes and the height of each fluorescence peak is compared to the height of the fluorescence peak induced by 70 pM Ala-6,12 orexin-A with buffer in place of antagonist. For each antagonist, IC50 value (the concentration of compound needed to inhibit 50% of the agonist response) is determined. Alternatively, compound potency can be assessed by a radioligand binding assay (described in Bergman et. al. Bioorg. Med. Chem. Lett. 2008, 18, 1425-1430) in which the inhibition constant (Ki) is determined in membranes prepared from CHO cells expressing either the OX1 or OX2 receptor. The intrinsic orexin receptor antagonist activity of a compound which may be used in the present invention may be determined by these assays.
In general terms: A change in cytosolic calcium serves as a functional read-out for many receptors and channels.

The next test concerns the target rat orexin-1 receptor (Rattus norvegicus, UniProt P56718). The test can be described thus: FLIPR Ca2+ Flux Assay, CHO cells expressing rat orexin-1 receptor. Type of test: cell-based. Conditions: agonist 70 pM Ala-6,12 human orexin-A, text says rat orexin-1 receptor, read-out: hOX1R FLIPR IC50. The method, then: as §1

For orientation: IC50 means the concentration that inhibits the measured activity by half.

Chain of human orexin-2 receptor (O43614 whole entry): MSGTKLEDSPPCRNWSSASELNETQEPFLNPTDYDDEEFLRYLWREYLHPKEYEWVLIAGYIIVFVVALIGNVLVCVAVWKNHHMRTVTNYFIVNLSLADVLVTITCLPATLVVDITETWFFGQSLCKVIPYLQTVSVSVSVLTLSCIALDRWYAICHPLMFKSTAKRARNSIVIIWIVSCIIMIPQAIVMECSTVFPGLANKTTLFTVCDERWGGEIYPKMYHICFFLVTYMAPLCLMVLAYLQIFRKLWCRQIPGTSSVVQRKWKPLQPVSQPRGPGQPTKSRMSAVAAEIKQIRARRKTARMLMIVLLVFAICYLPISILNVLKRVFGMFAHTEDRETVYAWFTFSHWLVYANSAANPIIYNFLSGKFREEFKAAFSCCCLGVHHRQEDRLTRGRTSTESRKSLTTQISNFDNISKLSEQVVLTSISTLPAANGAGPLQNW

Consider `C[C@@H]1CC[C@@H](N(C)c2cc(C#N)ccn2)CN1C(=O)c1ccccc1-n1ncnn1` [Example 9, 2-{methyl[(3R,6R)-6-methyl-1-{[2-(2H-tetrazol-2-yl)phenyl]-carbonyl}piperidin-3-yl]amino}pyridine-4-carbonitrile], for which the IC50 at human orexin-2 receptor worked out at 32 nM; at rat orexin-1 receptor, 2240 nM.
Taken in the same sequence, the figures for `CCN(c1cc(C#N)ccn1)[C@@H]1CC[C@@H](C)N(C(=O)c2ccccc2-n2nccn2)C1` [Example 12, 2-{ethyl[(3R,6R)-6-methyl-1-{[2-(2H-1,2,3-triazol-2-yl)phenyl]carbonyl}piperidin-3-yl]amino}-pyridine-4-carbonitrile] were 23 nM and 1990 nM.
Taken in the same sequence, the figures for `COc1c(C#N)ccnc1N[C@@H]1CC[C@@H](C)N(C(=O)c2ccccc2-n2nccn2)C1` [Example 2, 3-methoxy-2-{[(3R,6R)-6-methyl-1-{[2-(2H-1,2,3-triazol-2-yl)phenyl]carbonyl}piperidin-3-yl]amino}pyridine-4-carbonitrile] were 11 nM and 267 nM.
On the same counts, the results for `COc1c(C#N)ccnc1N(C)[C@@H]1CC[C@@H](C)N(C(=O)c2ccsc2-n2nccn2)C1` [Example 10, 3-methoxy-2-{methyl[(3R,6R)-6-methyl-1-{[2-(2H-1,2,3-triazol-2-yl)thiophen-3-yl]carbonyl}piperidin-3-yl]amino}pyridine-4-carbonitrile] are 39 nM and over 10000 nM.
With `C=CCN(c1cc(C#N)ccn1)[C@@H]1CC[C@@H](C)N(C(=O)c2ccccc2-n2nccn2)C1` [Example 13, 2-{[(3R,6R)-6-methyl-1-{[2-(2H-1,2,3-triazol-2-yl)phenyl]carbonyl}piperidin-3-yl](prop-2-en-1-yl)amino}pyridine-4-carbonitrile], the IC50 came to 23 nM at human orexin-2 receptor and 2550 nM at rat orexin-1 receptor.
On the same counts, the results for `C[C@@H]1CC[C@@H](Nc2cc(C#N)ccn2)CN1C(=O)c1ccccc1-n1nccn1` [Example 1, 2-(((3R,6R)-1-(2-(2H-1,2,3-Triazol-2-yl)benzoyl)-6-methylpiperidin-3-yl)amino)isonicotinonitrile] are 29 nM and 1740 nM.
Taken in the same sequence, the figures for `Cc1c(C#N)ccnc1N[C@@H]1CC[C@@H](C)N(C(=O)c2ccccc2-n2nccn2)C1` [Example 4, 2-(((3R,6R)-1-(2-(2H-1,2,3-Triazol-2-yl)benzoyl)-6-methylpiperidin-3-yl)amino)-3-methylisonicotinonitrile] were 7 nM and 745 nM.
On the same counts, the results for `COc1c(C#N)ccnc1N[C@@H]1CC[C@@H](C)N(C(=O)c2ccsc2-c2ncccn2)C1` [Example 7, 3-methoxy-2-((3R,6R)-6-methyl-1-(2-(pyrimidin-2-yl)thiophene-3-carbonyl)piperidin-3-ylamino)isonicotinonitrile] are 47 nM and 384 nM.
On to `Cc1c(C#N)ccnc1N[C@@H]1CC[C@@H](C)N(C(=O)c2ccccc2-n2ncnn2)C1` [Example 5, 3-methyl-2-{[(3R,6R)-6-methyl-1-{[2-(2H-tetrazol-2-yl)phenyl]-carbonyl}-piperidin-3-yl]amino}pyridine-4-carbonitrile], for which the IC50 at human orexin-2 receptor was 7 nM; at rat orexin-1 receptor it was 1150 nM.
On the same counts, the results for `CCCN(c1cc(C#N)ccn1)[C@@H]1CC[C@@H](C)N(C(=O)c2ccccc2-n2nccn2)C1` [Example 14, 2-{[(3R,6R)-6-methyl-1-{[2-(2H-1,2,3-triazol-2-yl)phenyl]carbonyl}piperidin-3-yl](propyl)-amino}pyridine-4-carbonitrile] are 13 nM and 330 nM.
Take `CC(=O)N(c1cc(C#N)ccn1)[C@@H]1CC[C@@H](C)N(C(=O)c2ccccc2-n2nccn2)C1` [Example 15, N-((3R,6R)-1-(2-(2H-1,2,3-Triazol-2-yl)benzoyl)-6-methylpiperidin-3-yl)-N-(4-cyanopyridin-2-yl)acetamide]: the IC50 on rat orexin-1 receptor is over 10000 nM.
For `C[C@@H]1CC[C@@H](N(C)c2cc(C#N)ccn2)CN1C(=O)c1ccccc1-n1nccn1` [Example 8, 2-(((3R,6R)-1-(2-(2H-1,2,3-Triazol-2-yl)benzoyl)-6-methylpiperidin-3-yl)(methyl)amino)isonicotinonitrile], the IC50 was 20 nM on human orexin-2 receptor and 2050 nM at rat orexin-1 receptor.
Taken in the same sequence, the figures for `COc1c(C#N)ccnc1N(C)[C@@H]1CC[C@@H](C)N(C(=O)c2ccsc2-c2ncccn2)C1` [Example 11, 3-methoxy-2-(methyl{(3R,6R)-6-methyl-1-[(2-pyrimidin-2-ylthiophen-3-yl)carbonyl]piperidin-3-yl}amino)pyridine-4-carbonitrile] were 34 nM and over 10000 nM.
On to `COc1c(C#N)ccnc1N[C@@H]1CC[C@@H](C)N(C(=O)c2ccsc2-n2nccn2)C1` [Example 6, 2-((3R,6R)-1-(2-(2H-1,2,3-Triazol-2-yl)thiophene-3-carbonyl)-6-methylpiperidin-3-ylamino)-3-methoxyisonicotinonitrile], for which the IC50 was determined as 11 nM at human orexin-2 receptor and 827 nM at rat orexin-1 receptor.
For `C[C@@H]1CC[C@@H](Nc2cc(C#N)ccn2)CN1C(=O)c1ccccc1-n1ncnn1` [Example 3, 2-(((3R,6R)-1-(2-(2H-Tetrazol-2-yl)benzoyl)-6-methylpiperidin-3-yl)amino)isonicotinonitrile], the IC50 at human orexin-2 receptor stood at 9 nM; at rat orexin-1 receptor, 1920 nM.

These data come from patent US9624197B2, “2-pyridylamino-4-nitrile-piperidinyl orexin receptor antagonists” (MERCK SHARP & DOHME CORP., priority 2012, dated 2017).
